Experimental data as given in PubChem BioAssay (NCI).
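Five compound concentrations were applied to cells in 96-well plates for 48 hours; endpoints were derived by simple linear interpolation of the resulting dose-response curve. Abbreviation: GI50, concentration required for 50% inhibition of growth. TGI denotes the concentration required for complete inhibition of growth.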

Tests used:
Assay in all cases: growth of human tumour cells (NCI), 48 h
PC-3 prostate = tested on: PC-3 prostate
A498 renal = tested on: A498 renal
BT-549 breast = tested on: BT-549 breast
MOLT-4 leukemia = tested on: MOLT-4 leukemia
EKVX NSCLC = tested on: EKVX NSCLC
NCI-H23 lung = tested on: NCI-H23 lung
OVCAR-4 ovarian = tested on: OVCAR-4 ovarian
SN12C renal = tested on: SN12C renal
TK-10 renal = tested on: TK-10 renal
HS 578T breast = tested on: HS 578T breast
SF-539 CNS = tested on: SF-539 CNS
HCT-15 colon = tested on: HCT-15 colon
ACHN renal = tested on: ACHN renal
CAKI-1 renal = tested on: CAKI-1 renal
OVCAR-3 ovarian = tested on: OVCAR-3 ovarian
HCC-2998 colon = tested on: HCC-2998 colon
T-47D breast = tested on: T-47D breast
SW-620 colon = tested on: SW-620 colon
SK-OV-3 ovarian = tested on: SK-OV-3 ovarian
SK-MEL-5 melanoma = tested on: SK-MEL-5 melanoma
OVCAR-5 ovarian = tested on: OVCAR-5 ovarian
CCRF-CEM leukemia = tested on: CCRF-CEM leukemia
OVCAR-8 ovarian = tested on: OVCAR-8 ovarian
LOX IMVI melanoma = tested on: LOX IMVI melanoma
UO-31 renal = tested on: UO-31 renal
NCI/ADR-RES ovarian = tested on: NCI/ADR-RES ovarian
SNB-75 CNS = tested on: SNB-75 CNS
MCF7 breast = tested on: MCF7 breast
K-562 leukemia = tested on: K-562 leukemia
DU-145 prostate = tested on: DU-145 prostate
HOP-92 NSCLC = tested on: HOP-92 NSCLC
UACC-62 melanoma = tested on: UACC-62 melanoma
KM12 colon = tested on: KM12 colon
UACC-257 melanoma = tested on: UACC-257 melanoma
NCI-H522 lung = tested on: NCI-H522 lung
SR leukemia = tested on: SR leukemia
RPMI-8226 leukemia = tested on: RPMI-8226 leukemia
MDA-MB-435 = tested on: MDA-MB-435
HL-60(TB) leukemia = tested on: HL-60(TB) leukemia
SK-MEL-28 melanoma = tested on: SK-MEL-28 melanoma
HT29 colon = tested on: HT29 colon
A549 NSCLC = tested on: A549 NSCLC
IGROV1 ovarian = tested on: IGROV1 ovarian
NCI-H460 lung = tested on: NCI-H460 lung
SF-268 CNS = tested on: SF-268 CNS
SF-295 CNS = tested on: SF-295 CNS
SK-MEL-2 melanoma = tested on: SK-MEL-2 melanoma
U251 CNS = tested on: U251 CNS
HCT-116 colon = tested on: HCT-116 colon
RXF 393 renal = tested on: RXF 393 renal
HOP-62 NSCLC = tested on: HOP-62 NSCLC
786-0 renal = tested on: 786-0 renal
COLO 205 colon = tested on: COLO 205 colon
SNB-19 CNS = tested on: SNB-19 CNS
NCI-H226 lung = tested on: NCI-H226 lung
MALME-3M melanoma = tested on: MALME-3M melanoma
MDA-MB-231 breast = tested on: MDA-MB-231 breast

## Cc1c(C)c2c(c(C)c1OC(=O)CCC(=O)[O-])CCC(C)(CCCCCCCCCCC[P+](c1ccccc1)(c1ccccc1)c1ccccc1)O2 (centres undefined)
PC-3 prostate
  GI50: 0.158 µM
  TGI: 0.706 µM
A498 renal
  GI50: 0.0851 µM
  TGI: 0.41 µM
BT-549 breast
  GI50: 0.14 µM
  TGI: 0.678 µM
MOLT-4 leukemia
  GI50: 0.456 µM
  TGI: 4.7 µM
EKVX NSCLC
  GI50: 0.222 µM
  TGI: 1.45 µM
NCI-H23 lung
  GI50: 0.159 µM
  TGI: 0.671 µM
OVCAR-4 ovarian
  GI50: 0.158 µM
  TGI: 0.891 µM
SN12C renal
  GI50: 0.165 µM
  TGI: 0.615 µM
TK-10 renal
  GI50: 0.244 µM
  TGI: 1.18 µM
HS 578T breast
  GI50: 0.18 µM
  TGI: 1.31 µM
SF-539 CNS
  GI50: 0.185 µM
  TGI: 0.721 µM
HCT-15 colon
  GI50: 0.977 µM
  TGI: 3.02 µM
ACHN renal
  GI50: 0.264 µM
  TGI: 0.909 µM
CAKI-1 renal
  GI50: 0.451 µM
  TGI: 1.34 µM
OVCAR-3 ovarian
  GI50: 0.145 µM
  TGI: 0.542 µM
HCC-2998 colon
  GI50: 0.214 µM
  TGI: 0.809 µM
T-47D breast
  GI50: 0.124 µM
  TGI: 0.966 µM
SW-620 colon
  GI50: 0.174 µM
  TGI: 0.842 µM
SK-OV-3 ovarian
  GI50: 0.157 µM
  TGI: 0.538 µM
SK-MEL-5 melanoma
  GI50: 0.0904 µM
  TGI: 0.182 µM
OVCAR-5 ovarian
  GI50: 0.22 µM
  TGI: 0.836 µM
CCRF-CEM leukemia
  GI50: 0.226 µM
  TGI: 1.31 µM
OVCAR-8 ovarian
  GI50: 0.175 µM
  TGI: 0.974 µM
LOX IMVI melanoma
  GI50: 0.194 µM
  TGI: 0.747 µM
UO-31 renal
  GI50: 0.744 µM
  TGI: 1.42 µM
NCI/ADR-RES ovarian
  GI50: 5.62 µM
  TGI: 22 µM
SNB-75 CNS
  GI50: 0.123 µM
  TGI: 0.49 µM
MCF7 breast
  GI50: 0.161 µM
  TGI: 0.815 µM
K-562 leukemia
  GI50: 0.182 µM
  TGI: 50 µM
DU-145 prostate
  GI50: 0.218 µM
  TGI: 0.899 µM
HOP-92 NSCLC
  GI50: 0.078 µM
  TGI: 0.276 µM
UACC-62 melanoma
  GI50: 0.177 µM
  TGI: 0.727 µM
KM12 colon
  GI50: 0.177 µM
  TGI: 0.705 µM
UACC-257 melanoma
  GI50: 0.151 µM
  TGI: 0.512 µM
NCI-H522 lung
  GI50: 0.153 µM
  TGI: 1.51 µM
SR leukemia
  GI50: 0.261 µM
  TGI: 9.05 µM
RPMI-8226 leukemia
  GI50: 0.0151 µM
  TGI: 0.148 µM
MDA-MB-435
  GI50: 0.179 µM
  TGI: 0.67 µM
HL-60(TB) leukemia
  GI50: 0.14 µM
  TGI: 0.566 µM
SK-MEL-28 melanoma
  GI50: 0.241 µM
  TGI: 0.829 µM
HT29 colon
  GI50: 0.166 µM
  TGI: 2.07 µM
A549 NSCLC
  GI50: 0.234 µM
  TGI: 4.58 µM

## N#C/C(=C\c1ccc(O)c(O)c1)C(=O)NCc1ccc(C(F)(F)F)cc1
PC-3 prostate
  GI50: 30.1 µM
  TGI: > 100 µM
A498 renal
  GI50: 16 µM
  TGI: 36.1 µM
BT-549 breast
  GI50: 10.6 µM
  TGI: > 53.7 µM
IGROV1 ovarian
  GI50: 2.4 µM
  TGI: 14.4 µM
MOLT-4 leukemia
  GI50: 3.92 µM
  TGI: 31.7 µM
NCI-H460 lung
  GI50: 6.87 µM
  TGI: > 43 µM
EKVX NSCLC
  GI50: 19.7 µM
  TGI: > 61.8 µM
NCI-H23 lung
  GI50: 4.54 µM
  TGI: 18.5 µM
SF-268 CNS
  GI50: 14.9 µM
  TGI: > 62.9 µM
OVCAR-4 ovarian
  GI50: 13.3 µM
  TGI: > 71.9 µM
SN12C renal
  GI50: 4.06 µM
  TGI: 18.8 µM
TK-10 renal
  TGI: 10.4 µM
HS 578T breast
  GI50: 12.6 µM
  TGI: 46.9 µM
SF-539 CNS
  GI50: 5.5 µM
  TGI: 17.8 µM
HCT-15 colon
  GI50: 4.05 µM
  TGI: 41.1 µM
ACHN renal
  GI50: 6.14 µM
  TGI: 23.9 µM
SF-295 CNS
  GI50: 3.39 µM
  TGI: 11.8 µM
SK-MEL-2 melanoma
  TGI: 6.34 µM
CAKI-1 renal
  TGI: 1.81 µM
OVCAR-3 ovarian
  GI50: 0.507 µM
  TGI: 1.11 µM
HCC-2998 colon
  GI50: 12.1 µM
  TGI: 24.5 µM
T-47D breast
  GI50: 8.72 µM
  TGI: 59.8 µM
SW-620 colon
  GI50: 7.68 µM
  TGI: 37.8 µM
SK-OV-3 ovarian
  GI50: 16.6 µM
  TGI: 61.4 µM
U251 CNS
  GI50: 5.67 µM
  TGI: 28.9 µM
SK-MEL-5 melanoma
  GI50: 8.09 µM
  TGI: 24.4 µM
OVCAR-5 ovarian
  GI50: 14.2 µM
  TGI: 44.7 µM
HCT-116 colon
  GI50: 2.58 µM
  TGI: 11.4 µM
CCRF-CEM leukemia
  GI50: 2.14 µM
  TGI: 14.7 µM
OVCAR-8 ovarian
  GI50: 10.1 µM
  TGI: > 49.7 µM
LOX IMVI melanoma
  GI50: 7.54 µM
  TGI: 20.4 µM
UO-31 renal
  GI50: 4.62 µM
  TGI: 18 µM
NCI/ADR-RES ovarian
  GI50: 5.19 µM
  TGI: 24.7 µM
RXF 393 renal
  GI50: 12.2 µM
  TGI: 41 µM
SNB-75 CNS
  GI50: 13.3 µM
  TGI: 55.7 µM
HOP-62 NSCLC
  GI50: 9.48 µM
  TGI: 26.9 µM
MCF7 breast
  GI50: 21.3 µM
  TGI: > 69 µM
K-562 leukemia
  GI50: 9.91 µM
  TGI: > 83.6 µM
DU-145 prostate
  GI50: 16.3 µM
  TGI: > 62.3 µM
HOP-92 NSCLC
  GI50: 0.468 µM
  TGI: 12.3 µM
786-0 renal
  GI50: 18.4 µM
  TGI: 37.5 µM
UACC-62 melanoma
  GI50: 4.25 µM
  TGI: 13.9 µM
COLO 205 colon
  GI50: 12.1 µM
  TGI: 43.3 µM
KM12 colon
  GI50: 6.08 µM
  TGI: 26.9 µM
UACC-257 melanoma
  GI50: 17.9 µM
  TGI: > 68.6 µM
NCI-H522 lung
  GI50: 3.06 µM
  TGI: 19.6 µM
SR leukemia
  GI50: 2.47 µM
  TGI: 6 µM
RPMI-8226 leukemia
  GI50: 3.21 µM
SNB-19 CNS
  GI50: 11.2 µM
  TGI: > 68 µM
MDA-MB-435
  GI50: 5.69 µM
  TGI: 29.4 µM
HL-60(TB) leukemia
  GI50: 11.6 µM
  TGI: > 66.5 µM
SK-MEL-28 melanoma
  GI50: 16.9 µM
  TGI: 57 µM
NCI-H226 lung
  GI50: 19.8 µM
  TGI: 54.9 µM
MALME-3M melanoma
  GI50: 0.771 µM
  TGI: 30.7 µM
HT29 colon
  GI50: 15.7 µM
  TGI: 50.7 µM
MDA-MB-231 breast
  GI50: 2.08 µM
  TGI: 18.1 µM
A549 NSCLC
  GI50: 10.9 µM
  TGI: 53.5 µM
